# Measured values taken from patent US8629112B2, “Template-fixed peptidomimetics with CXCR7 modulating activity” (priority 2010, dated 2014).
# Read-outs that look alike come from different tables or passages of the source. Square brackets hold non-standard residues; d marks the D form. Peptide text beside a SMILES is read from it. 1Nal = N[C@@H](Cc1cccc2ccccc12)C(=O)O; Tic = O=C(O)[C@@H]1Cc2ccccc2CN1; dTic = O=C(O)[C@H]1Cc2ccccc2CN1; Orn = NCCC[C@H](N)C(=O)O; Aze = O=C(O)[C@@H]1CCN1; Dab = NCC[C@H](N)C(=O)O; Abu = CC[C@H](N)C(=O)O
# Molecular target: T1, CXCR7 (Homo sapiens, UniProt P25106)
# T1 construct: host or cells: CHO (PathHunter CHO-CXCR7 β-arrestin cells)
# T1 sequence (P25106 whole entry): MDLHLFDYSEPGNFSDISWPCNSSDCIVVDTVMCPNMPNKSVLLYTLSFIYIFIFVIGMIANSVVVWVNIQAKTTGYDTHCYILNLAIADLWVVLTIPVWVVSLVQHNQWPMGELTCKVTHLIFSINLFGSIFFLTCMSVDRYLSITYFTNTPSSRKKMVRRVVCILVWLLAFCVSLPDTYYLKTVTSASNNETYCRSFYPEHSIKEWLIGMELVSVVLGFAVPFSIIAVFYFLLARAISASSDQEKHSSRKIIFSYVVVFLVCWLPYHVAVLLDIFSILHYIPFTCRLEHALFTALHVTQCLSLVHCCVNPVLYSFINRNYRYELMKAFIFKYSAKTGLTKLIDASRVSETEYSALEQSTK
# Test: CXCR7 β-arrestin recruitment assay (PathHunter CHO-CXCR7, agonistic assay)
# Format: cell-based
# Method: Lyophilized peptides were weighed on a Microbalance (Mettler MX5) and dissolved in DMSO to a final concentration of 10 mM unless otherwise stated. Stock solutions were kept at +4° C., and protected from light.
# 2.2 CXCR7 β-Arrestin Recruitment Assay
# The PathHunter CHO-CXCR7 (DiscoverX) assay was performed according to the manufacturer's protocol. In brief, CHO CXCR7 β-arrestin cells were seeded at a density of 5000 cells per well in 40 μl of F12 medium in a 96-half volume well black culture plate and incubated overnight at 37° C. in a humidified atmosphere with 5% CO2. The next day, serial dilutions of PEM compounds have been prepared in DMSO and subsequently diluted in HBSS buffer containing 0.1% BSA.
# For agonistic assay, 10 μl of compound solution or a solution of stromal cell-derived factor-1 (SDF-1) as positive control was added to the cells with a final DMSO concentration of 1% (v/v). The plate was incubated for 90 min at 37° C. in 5% CO2 incubator with gentle shaking (300 rpm) before addition of 40 ul of detection reagent per well. Reaction was developed 90 min at room temperature in the dark with shaking, and chemiluminescence was measured with a Topcount (Perkin Elmer) luminescence counter.
# [1] = CHO CXCR7 β-arrestin cells, agonistic assay, 90 min at 37° C., chemiluminescence, read-out: β-Arrestin EC50
Compound,EC50 [1],EC50
"N=C(N)NCCC[C@@H]1NC(=O)[C@H](Cc2c[nH]c3ccccc23)NC(=O)[C@@H](Cc2c[nH]c3ccccc23)NC(=O)[C@H](Cc2c[nH]c3ccccc23)NC(=O)[C@@H]2Cc3ccccc3CN2C(=O)[C@H]2CCCN2C1=O [Ex. 10, cyclo(-Trp-^DTrp-Trp-Arg-^DPro-Tic-)] (cyclo(R[dP][Tic]W[dW]W))",64.9 ± 113 nM,–
"N=C(N)NCCC[C@@H]1NC(=O)[C@H](Cc2ccc(O)cc2)NC(=O)[C@@H](Cc2ccccc2)NC(=O)[C@H](Cc2c[nH]c3ccccc23)NC(=O)[C@@H]2Cc3ccccc3CN2C(=O)[C@H]2CCCN2C1=O [compound 16, cyclo(-Trp-^DPhe-Tyr-Arg-^DPro-Tic-)] (cyclo(R[dP][Tic]W[dF]Y))",326 ± 99.8 nM,–
"NCCCC[C@@H]1NC(=O)[C@H](Cc2c[nH]c3ccccc23)NC(=O)[C@@H](Cc2ccccc2)NC(=O)[C@H](Cc2c[nH]c3ccccc23)NC(=O)[C@@H]2Cc3ccccc3CN2C(=O)[C@H]2CCCN2C1=O [compound 20, cyclo(-Trp-^DPhe-Trp-Lys-^DPro-Tic-)] (cyclo(K[dP][Tic]W[dF]W))",16.5 ± 8 nM,–
"NCC[C@@H]1NC(=O)[C@H](Cc2c[nH]c3ccccc23)NC(=O)[C@@H](Cc2ccccc2)NC(=O)[C@H](Cc2c[nH]c3ccccc23)NC(=O)[C@@H]2Cc3ccccc3CN2C(=O)[C@H]2CCCN2C1=O [compound 22, cyclo(-Trp-^DPhe-Trp-Dab-^DPro-Tic-)] (cyclo([Dab][dP][Tic]W[dF]W))",12.6 ± 1.6 nM,–
"O=C1N[C@@H](Cc2c[nH]cn2)C(=O)N2CCC[C@@H]2C(=O)N2Cc3ccccc3C[C@H]2C(=O)N[C@@H](Cc2c[nH]c3ccccc23)C(=O)N[C@H](Cc2ccccc2)C(=O)N[C@H]1Cc1c[nH]c2ccccc12 [Ex. 23, cyclo(-Trp-^DPhe-Trp-His-^DPro-Tic-)] (cyclo(H[dP][Tic]W[dF]W))",18.3 ± 17.6 nM,–
"N=C(N)NCCC[C@@H]1NC(=O)[C@H](Cc2ccc(O)cc2)NC(=O)[C@@H](Cc2c[nH]cn2)NC(=O)[C@H](Cc2cccc3ccccc23)NC(=O)[C@@H]2CCN2C(=O)[C@H]2CCCN2C1=O [compound 45, cyclo(-1Nal-^DHis-Tyr-Arg-^DPro-Azt-)] (cyclo([1Nal][dH]YR[dP][Aze]))",44.4 ± 25.4 nM,–
"N=C(N)NCCC[C@@H]1NC(=O)[C@H](Cc2c[nH]c3ccccc23)NC(=O)[C@@H](Cc2c[nH]cn2)NC(=O)[C@H](Cc2c[nH]c3ccccc23)NC(=O)[C@@H]2CCN2C(=O)[C@H]2CCCN2C1=O [compound 48, cyclo(-Trp-^DHis-Trp-Arg-^DPro-Azt-)] (cyclo([Aze]W[dH]WR[dP]))",342 ± 46.8 nM,–
"C[C@@H]1NC(=O)[C@@H]2Cc3ccccc3CN2C(=O)[C@H]2CCCN2C(=O)[C@H](CCCNC(=N)N)NC(=O)[C@H](Cc2c[nH]c3ccccc23)NC(=O)[C@@H](Cc2ccccc2)NC1=O [Ex. 1, cyclo(-Ala-^DPhe-Trp-Arg-^DPro-Tic-)] (cyclo(A[dF]WR[dP][Tic]))",163 ± 40.9 nM,–
"NCCC[C@@H]1NC(=O)[C@H](Cc2c[nH]c3ccccc23)NC(=O)[C@@H](Cc2ccccc2)NC(=O)[C@H](Cc2c[nH]c3ccccc23)NC(=O)[C@@H]2Cc3ccccc3CN2C(=O)[C@H]2CCCN2C1=O [compound 21, cyclo(-Trp-^DPhe-Trp-Orn-^DPro-Tic-)] (cyclo([Orn][dP][Tic]W[dF]W))",12.1 nM,–
"N=C(N)NCCC[C@@H]1NC(=O)[C@H](Cc2c[nH]c3ccccc23)NC(=O)[C@@H](Cc2ccccc2)NC(=O)[C@H](Cc2c[nH]c3ccccc23)NC(=O)[C@@H]2CCCN2C(=O)[C@H]2Cc3ccccc3CN2C1=O [Ex. 40, cyclo(-Trp-^DPhe-Trp-Arg-^DTic-Pro-)] (cyclo(PW[dF]WR[dTic]))",83.6 ± 22.7 nM,–
"N=C(N)NCCC[C@@H]1NC(=O)[C@H](Cc2c[nH]c3ccccc23)NC(=O)[C@@H](Cc2ccccc2)NC(=O)[C@H](Cc2ccc(O)cc2)NC(=O)[C@@H]2Cc3ccccc3CN2C(=O)[C@H]2CCCN2C1=O [compound 5, cyclo(-Tyr-^DPhe-Trp-Arg-^DPro-Tic-)] (cyclo(R[dP][Tic]Y[dF]W))",–,11.5 ± 9 nM
"N=C(N)NCCC[C@@H]1NC(=O)[C@H](Cc2c[nH]c3ccccc23)NC(=O)[C@@H](Cc2c[nH]cn2)NC(=O)[C@H](Cc2c[nH]c3ccccc23)NC(=O)[C@@H]2Cc3ccccc3CN2C(=O)[C@H]2CCCN2C1=O [compound 11, cyclo(-Trp-^DHis-Trp-Arg-^DPro-Tic-)] (cyclo(R[dP][Tic]W[dH]W))",204 ± 8.1 nM,–
"N=C(N)NCCC[C@@H]1NC(=O)[C@H](Cc2c[nH]c3ccccc23)NC(=O)[C@@H](Cc2ccccc2)NC(=O)[C@H](Cc2c[nH]c3ccccc23)NC(=O)[C@@H]2Cc3ccccc3CN2C(=O)[C@H]2CCCN2C1=O [compound 9, cyclo(-Trp-^DPhe-Trp-Arg-^DPro-Tic-)] (cyclo(R[dP][Tic]W[dF]W))",4.8 ± 4.4 nM,–

# Now from value to compound, other results behind:
EC50 [1],Compound,EC50
348 ± 55.6 nM,"N=C(N)NCCC[C@@H]1NC(=O)[C@H](Cc2c[nH]cn2)NC(=O)[C@@H](CCCNC(=N)N)NC(=O)[C@H](Cc2c[nH]c3ccccc23)NC(=O)[C@@H]2Cc3ccccc3CN2C(=O)[C@H]2CCCN2C1=O [compound 37, cyclo(-Trp-^DArg-His-Arg-^DPro-Tic-)] (cyclo(HR[dP][Tic]W[dR]))",–
144 ± 136 nM,"N=C(N)NCCC[C@@H]1NC(=O)[C@@H]2Cc3ccccc3CN2C(=O)[C@H]2CCCN2C(=O)[C@H](CCCNC(=N)N)NC(=O)[C@H](Cc2c[nH]c3ccccc23)NC(=O)[C@@H](Cc2c[nH]cn2)NC1=O [compound 36, cyclo(-Arg-^DHis-Trp-Arg-^DPro-Tic-)] (cyclo(R[dH]WR[dP][Tic]))",–
12.8 ± 4.5 nM,"N=C(N)NCCC[C@@H]1NC(=O)[C@@H]2Cc3ccccc3CN2C(=O)[C@H]2CCCN2C(=O)[C@H](CCCNC(=N)N)NC(=O)[C@H](Cc2c[nH]c3ccccc23)NC(=O)[C@@H](Cc2ccccc2)NC1=O [compound 6, cyclo(-Arg-^DPhe-Trp-Arg-^DPro-Tic-)] (cyclo(R[dF]WR[dP][Tic]))",–
97.5 ± 6.3 nM,"CC[C@@H]1NC(=O)[C@@H]2Cc3ccccc3CN2C(=O)[C@H]2CCCN2C(=O)[C@H](Cc2c[nH]c3ccccc23)NC(=O)[C@H](CCCNC(=N)N)NC(=O)[C@@H](CCCNC(=N)N)NC1=O [compound 30, cyclo(-Abu-^DArg-Arg-Trp-^DPro-Tic-)] (cyclo([Abu][dR]RW[dP][Tic]))",–
280 ± 115 nM,"N=C(N)NCCC[C@@H]1NC(=O)[C@H](Cc2c[nH]c3ccccc23)NC(=O)[C@@H](CCCNC(=N)N)NC(=O)[C@H](Cc2cccc3ccccc23)NC(=O)[C@@H]2Cc3ccccc3CN2C(=O)[C@H]2CCCN2C1=O [compound 28, cyclo(-1Nal-^DArg-Trp-Arg-^DPro-Tic-)] (cyclo([1Nal][dR]WR[dP][Tic]))",–
47.7 ± 21.9 nM,"CC[C@H](C)[C@@H]1NC(=O)[C@@H](CCCNC(=N)N)NC(=O)[C@H](Cc2c[nH]c3ccccc23)NC(=O)[C@@H]2CCN2C(=O)[C@H]2CCCN2C(=O)[C@H](CCCNC(=N)N)NC1=O [compound 50, cyclo(-Trp-^DArg-Ile-Arg-^DPro-Azt-)] (cyclo([Aze]W[dR]IR[dP]))",–
34.3 ± 3.6 nM,"CC[C@H](C)[C@@H]1NC(=O)[C@@H](CCCNC(=N)N)NC(=O)[C@H]([C@@H](C)CC)NC(=O)[C@@H]2Cc3ccccc3CN2C(=O)[C@H]2CCCN2C(=O)[C@H](CCCNC(=N)N)NC1=O [compound 33, cyclo(-Ile-^DArg-Ile-Arg-^DPro-Tic-)] (cyclo(IR[dP][Tic]I[dR]))",–
148 ± 96.8 nM,"CC[C@H](C)[C@@H]1NC(=O)[C@@H](Cc2ccccc2)NC(=O)[C@H](Cc2c[nH]c3ccccc23)NC(=O)[C@@H]2Cc3ccccc3CN2C(=O)[C@H]2CCCN2C(=O)[C@H](CCCNC(=N)N)NC1=O [compound 18, cyclo(-Trp-^DPhe-Ile-Arg-^DPro-Tic-)] (cyclo(IR[dP][Tic]W[dF]))",–
234 ± 132 nM,"N=C(N)NCCC[C@@H]1NC(=O)[C@@H]2Cc3ccccc3CN2C(=O)[C@H]2CCCN2C(=O)[C@H](CCCNC(=N)N)NC(=O)[C@H](Cc2c[nH]cn2)NC(=O)[C@@H](Cc2c[nH]c3ccccc23)NC1=O [compound 35, cyclo(-Arg-^DTrp-His-Arg-^DPro-Tic-)] (cyclo(HR[dP][Tic]R[dW]))",–
70.8 ± 14.3 nM,"CC[C@H](C)[C@@H]1NC(=O)[C@@H]2Cc3ccccc3CN2C(=O)[C@H]2CCCN2C(=O)[C@H](CCCNC(=N)N)NC(=O)[C@H](Cc2c[nH]c3ccccc23)NC(=O)[C@@H](Cc2c[nH]cn2)NC1=O [compound 32, cyclo(-Ile-^DHis-Trp-Arg-^DPro-Tic-)] (cyclo(I[dH]WR[dP][Tic]))",–
